This note sets out measurements from patent publication US11034654B2, “2,3-dihydroisoindole-1-carboxamides useful as ROR-gamma modulators” (AstraZeneca AB, priority 2017, dated 2021).

As usually defined, the IC50 is the concentration that gives 50% inhibition.

Assay [1] concerns the target T1, RORγ ligand binding domain (Homo sapiens, UniProt P51449). Briefly: RORγ co-factor recruitment assay (FRET). It counts as biochemical. Set-up: made in house; host or cells: E. coli BL21DE3 Star. Particulars: inhibition of recruitment of SRC-1 peptide (NCOA1_677-700) to hRORγ LBD, HTRF read-out. The source says:
RORγ Co-Factor Recruitment Assay A high throughput coactivator binding assay for the identification of inverse agonists of the recruitment of peptide SRC-1 (NCOA1_677-_700) to the RORγ ligand binding domain was established. The ligand binding domain (LBD) of human RORγ was expressed in E. coli (BL21DE3 Star) as a fusion protein: N-6×HN-MBP-Avi-TCS-hRORγLBD(P260-K518) subcloned into pET24a(+). The LBD (P260-K518) is underlined in the protein sequence: The assay was run in black 384 well plates (Greiner cat no: 784900). Various concentrations of test ligands in 0.1 microlitres DMSO were dispensed to assay plates using an Echo acoustic dispenser. Two pre-mixes were prepared and incubated for 1 h at room temp in the dark. Pre-mix 1 comprised 100 nM Protein (Biotinylated HN-Avi-MBP-TCS-hRORγ (258-518)) and 60 nM Streptavidin APC in assay buffer, 50 mM MOPS pH7.4, 50 mM KF, 0.003% (w/v) CHAPS, 10 mM DTT and 0.01% (w/v) BSA and pre-mix 2 comprised 160 nM biotinylated SRC-1 peptide (NCOA1-677-700) and 20 nM Europium-W8044 labelled Streptavidin in assay buffer. Five microlitres of pre-mix 2 was dispensed to assay plates containing 0.1 microlitres of test compound and was incubated for 15 min prior to adding five microlitres of pre-mix 1. Plates were incubated at rt for 1 hour in the dark, prior to reading in a Pherastar multi-mode plate reader using HTRF filter set (ex 320, em 612 and 665). The FRET signal at 665 nm was divided by the signal at 612 nm and multiplied by 10,000 to generate a signal ratio value for each well. The raw data was transformed to % effect using the equation: Compound % effect=100*[(X−min)/(max−min)], where X represents the normalized value for the compound based on the Min (vehicle) and Max (reference compound) inhibition control. The concentration of test ligand that inhibited the activity by 50% (i.e., the IC50) was calculated by plotting the % effect versus test ligand concentration and fitting the data using the Genedata Screener Smart fit algorithm.

Assay [2] has as its target T1, RORγ ligand binding domain. Briefly: RORγ radioligand competition binding assay (SPA). Particulars: competition with tritiated 2-(4-(ethylsulfonyl)phenyl)-N-(4-(2-(methoxymethyl)phenyl)thiophen-2-yl)acetamide (25 nM), hRORγ LBD. The source says:
RORγ Radioligand Competition Binding Assay The aim of this assay is to identify compounds which bind to the RORγ ligand binding domain, by competing with tritiated 2-(4-(ethylsulfonyl)phenyl)-N-(4-(2-(methoxymethyl)phenyl)thiophen-2-yl)acetamide. Human RORγ (Ligand Binding Domain (RORγ LBD) was expressed in E. coli (BL21DE3 Star) as a fusion protein: N-6×HN-Avi-GST-TCS-hRORγ LBD (S258-K518) subcloned into pET24a(+). The LBD (258-518) is underlined in the protein sequence: The scintillation proximity assay (SPA) was run in white polystyrene flat-bottom 384-well plates (Greiner, cat. No. 781075). Assays were carried out in 40 μl reaction volumes. Various concentrations of test ligands in 0.4 microlitres of DMSO were added to assay plates using an acoustic liquid dispenser. 4 nM purified N-(HN)6-GST-TCS-hRORγ (258-518) was mixed with 40 micrograms Yttrium oxide (YOx) glutathione SPA imaging beads in assay buffer (20 mM Tris, 150 mM NaCl, 10% Glycerol, 0.25% CHAPS, 1 mM TCEP) prior to adding 30 microlitres to test ligands. Assay plates were incubated for one hour at room temperature before adding 10 microlitres tritiated 2-(4-(ethylsulfonyl)phenyl)-N-(4-(2-(methoxymethyl)phenyl)thiophen-2-yl)acetamide to test plates in assay buffer (final concentration, 25 nM). Test plates were incubated for 16 hours and read using a LEADseeker Multimodality imaging instrument. The raw data was analysed and IC50 and Ki values for the compounds were calculated using Genedata Screener software. Raw data was transformed to % effect using equation 1: Compound % effect=100*[(X−min)/(max−min)], where X represents the normalized value for the compound based on the Min (vehicle) and Max (reference compound) inhibition controls. The concentration of test ligand that inhibited radioligand binding by 50% (i.e., the IC50) was calculated by plotting the % effect versus test ligand concentration and fitting the data using the Genedata Screener Smart fit algorithm. Ki is calculated from the IC50 value using the equation Ki=IC50/1+[L]/Kd) where [L]=25 nmol/L and Kd=17 nmol/L
(In a radioligand displacement assay an active substance lowers the binding of a labelled ligand.)

`CNC(c1ccc(NC(=O)C2c3ccc(S(C)(=O)=O)cc3CN2C(C)=O)cc1)(C(F)(F)F)C(F)(F)F` (centres unmarked) [Example 24, 2-Acetyl-N-{4-[1,1,1,3,3,3-hexafluoro-2-(methylamino)propan-2-yl]phenyl}-5-(methylsulfonyl)-2,3-dihydro-1H-isoindole-1-carboxamide]: the IC50 is 50.1 nM in assay [1] and 31.6 nM in assay [2].

With `COC(c1ccc(NC(=O)C2c3ccc(S(C)(=O)=O)cc3CN2C(C)=O)cc1)(C(F)(F)F)C(F)(F)F` (centres unmarked) [Example 28, 2-Acetyl-N-[4-(1,1,1,3,3,3-hexafluoro-2-methoxypropan-2-yl)phenyl]-5-(methylsulfonyl)-2,3-dihydro-1H-isoindole-1-carboxamide], the half-inhibitory concentration (IC50) in assay [1] is 39.8 nM; in assay [2] it was 7.94 nM.

Consider `CS(=O)(=O)c1ccc2c(c1)CN(C(=O)CCN)C2C(=O)Nc1ccc(C(C#N)(C(F)(F)F)C(F)(F)F)cc1` (centres unmarked) [Example 11, 2-(3-Aminopropanoyl)-N-[4-[1-cyano-2,2,2-trifluoro-1-(trifluoromethyl)ethyl]phenyl]-5-methylsulfonyl-isoindoline-1-carboxamide], for which the 50% inhibitory concentration (IC50) in assay [1] is 158 nM; in assay [2] it was 25.1 nM.

As to `CC(=O)N1Cc2cc(S(C)(=O)=O)ccc2C1C(=O)Nc1ccc(C(NCCS(C)(=O)=O)(C(F)(F)F)C(F)(F)F)cc1` (centres unmarked) [Example 26, 2-Acetyl-N-[4-(1,1,1,3,3,3-hexafluoro-2-{[2-(methylsulfonyl)ethyl]amino}propan-2-yl)phenyl]-5-(methylsulfonyl)-2,3-dihydro-1H-isoindole-1-carboxamide], the IC50 in assay [1] was 1000 nM; in assay [2], 631 nM.

For `COC(=O)N1Cc2cc(S(C)(=O)=O)ccc2C1C(=O)Nc1ccc(C(C#N)(C(F)(F)F)C(F)(F)F)cc1` (centres unmarked) [Example 7, Methyl 1-{[4-(2-cyano-1,1,1,3,3,3-hexafluoropropan-2-yl)phenyl]carbamoyl}-5-(methylsulfonyl)-1,3-dihydro-2H-isoindole-2-carboxylate], the 50% inhibitory concentration (IC50) is 50.1 nM in assay [1] and 12.6 nM in assay [2].

With `CCCNC(c1ccc(NC(=O)C2c3ccc(S(C)(=O)=O)cc3CN2C(C)=O)cc1)(C(F)(F)F)C(F)(F)F` (centres unmarked) [Example 16, 2-Acetyl-N-{4-[1,1,1,3,3,3-hexafluoro-2-(propylamino)propan-2-yl]phenyl}-5-(methylsulfonyl)-2,3-dihydro-1H-isoindole-1-carboxamide], the 50% inhibitory concentration (IC50) in assay [1] was 39.8 nM; in assay [2], 6.31 nM.

For the molecule `CC(=O)N1Cc2cc(S(C)(=O)=O)ccc2C1C(=O)Nc1ccc(C(N(C)C)(C(F)(F)F)C(F)(F)F)cc1` (centres unmarked) [Example 25, 2-Acetyl-N-{4-[2-(dimethylamino)-1,1,1,3,3,3-hexafluoropropan-2-yl]phenyl}-5-(methylsulfonyl)-2,3-dihydro-1H-isoindole-1-carboxamide], the IC50 in assay [1] was 39.8 nM; in assay [2], 6.31 nM.

Regarding `CC(=O)N1Cc2cc(S(C)(=O)=O)ccc2C1C(=O)Nc1ccc(C(CC(=O)OC(C)C)(C(F)(F)F)C(F)(F)F)cc1` (centres unmarked) [Example 40, Propan-2-yl 3-[4-({[2-acetyl-5-(methylsulfonyl)-2,3-dihydro-1H-isoindol-1-yl]carbonyl}amino)phenyl]-4,4,4-trifluoro-3-(trifluoromethyl)butanoate], the concentration for half-maximal inhibition (IC50) was more than 31600 nM in assay [1] and 12.6 nM in assay [2].

With `CS(=O)(=O)c1ccc2c(c1)CN(C=O)C2C(=O)Nc1ccc(C(C#N)(C(F)(F)F)C(F)(F)F)cc1` (centres unmarked) [Example 6, N-[4-(2-Cyano-1,1,1,3,3,3-hexafluoropropan-2-yl)phenyl]-2-formyl-5-(methylsulfonyl)-2,3-dihydro-1H-isoindole-1-carboxamide], the values for the IC50 in assay [1] and in assay [2] were 39.8 nM and 10 nM, respectively.

For the molecule `CC(=O)N1Cc2cc(S(C)(=O)=O)ccc2C1C(=O)Nc1ccc(C(n2ccnn2)(C(F)(F)F)C(F)(F)F)cc1` (centres unmarked) [Example 29, 2-Acetyl-N-{4-[1,1,1,3,3,3-hexafluoro-2-(1H-1,2,3-triazol-1-yl)propan-2-yl]phenyl}-5-(methylsulfonyl)-2,3-dihydro-1H-isoindole-1-carboxamide], the IC50 in assay [1] is 100 nM; in assay [2], 39.8 nM.

Turning to `CS(=O)(=O)c1ccc2c(c1)CN(C(=O)CN)C2C(=O)Nc1ccc(C(C#N)(C(F)(F)F)C(F)(F)F)cc1` (centres unmarked) [Example 10, N-[4-(2-Cyano-1,1,1,3,3,3-hexafluoropropan-2-yl)phenyl]-2-glycyl-5-(methylsulfonyl)-2,3-dihydro-1H-isoindole-1-carboxamide], the IC50 in assay [1] is 79.4 nM; in assay [2], 25.1 nM.

Consider `COCC(=O)N1Cc2cc(S(C)(=O)=O)ccc2C1C(=O)Nc1ccc(C(C#N)(C(F)(F)F)C(F)(F)F)cc1` (centres unmarked) [Example 8, N-[4-(2-Cyano-1,1,1,3,3,3-hexafluoropropan-2-yl)phenyl]-2-(methoxyacetyl)-5-(methylsulfonyl)-2,3-dihydro-1H-isoindole-1-carboxamide], for which the IC50 was 50.1 nM in assay [1] and 12.6 nM in assay [2].

In the case of `CC(=O)N1Cc2cc(S(C)(=O)=O)ccc2C1C(=O)Nc1ccc(C(NCCOC(C)C)(C(F)(F)F)C(F)(F)F)cc1` (centres unmarked) [Example 27, 2-Acetyl-N-[4-(1,1,1,3,3,3-hexafluoro-2-{[2-(propan-2-yloxy)ethyl]amino}propan-2-yl)phenyl]-5-(methylsulfonyl)-2,3-dihydro-1H-isoindole-1-carboxamide], the values for the half-maximal inhibitory concentration (IC50) in assay [1] and in assay [2] were more than 31600 nM and 7.94 nM, respectively.

In the case of `CS(=O)(=O)c1ccc2c(c1)CN(C(=O)CCC(=O)O)C2C(=O)Nc1ccc(C(C#N)(C(F)(F)F)C(F)(F)F)cc1` (centres unmarked) [Example 9, 4-[1-{[4-(2-Cyano-1,1,1,3,3,3-hexafluoropropan-2-yl)phenyl]carbamoyl}-5-(methylsulfonyl)-1,3-dihydro-2H-isoindol-2-yl]-4-oxobutanoic acid], the IC50 in assay [1] was 100 nM; in assay [2], 10 nM.

As for `CC(=O)N1Cc2cc(S(C)(=O)=O)ccc2C1C(=O)Nc1ccc(C(CC(=O)N2CC(C)(F)C2)(C(F)(F)F)C(F)(F)F)cc1` (centres unmarked) [Example 39, 2-Acetyl-5-(methylsulfonyl)-N-{4-[1,1,1-trifluoro-4-(3-fluoro-3-methylazetidin-1-yl)-4-oxo-2-(trifluoromethyl)butan-2-yl]phenyl}-2,3-dihydro-1H-isoindole-1-carboxamide], the concentration for half-maximal inhibition (IC50) in assay [1] is more than 31600 nM; in assay [2], 398 nM.

In the case of `CC(=O)N1Cc2cc(S(C)(=O)=O)ccc2C1C(=O)Nc1ccc(C(CC(=O)OC(C)(C)C)(C(F)(F)F)C(F)(F)F)cc1` (centres unmarked) [Example 44, tert-Butyl 3-[4-({[2-acetyl-5-(methylsulfonyl)-2,3-dihydro-1H-isoindol-1-yl]carbonyl}amino)phenyl]-4,4,4-trifluoro-3-(trifluoromethyl)butanoate], the IC50 in assay [1] is more than 31600 nM; in assay [2], 15.8 nM.
